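Method: 48-hour compound exposure of cells in 96-well plates, five concentrations, linear interpolation of endpoints. Abbreviation: GI50, concentration required for 50% inhibition of growth.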 The source made the active and inactive calls. Rule as the data show it: active = GI50 up to about 1.1 µM and inactive = higher.
Columns and labels:
Assay in all cases: inhibition of tumour cell growth, NCI panel, 48 h
DMS-114 = system: DMS-114
DLD-1 = system: DLD-1
SNB-78 = system: SNB-78
HOP-18 = system: HOP-18
DMS-273 = system: DMS-273
XF498 = system: XF498
M19-MEL = system: M19-MEL
KM-20L2 = system: KM-20L2
RXF 631 = system: RXF 631

Row | Structure (SMILES) | GI50 (DMS-114) | GI50 (DLD-1) | GI50 (SNB-78) | GI50 (HOP-18) | GI50 (DMS-273) | GI50 (XF498) | GI50 (M19-MEL) | GI50 (KM-20L2) | GI50 (RXF 631)
1 | O=C(O)CCc1cccc2c1oc1c(CCC(=O)O)cccc12 | > 100 µM (inactive) | > 100 µM (inactive) | 48.1 µM (inactive) | > 100 µM (inactive) | > 100 µM (inactive) | > 100 µM (inactive) | > 100 µM (inactive) | > 100 µM (inactive) | 
2 | O=C1c2ccccc2CC1C1(O)C(=O)Nc2c(Cl)cc(Cl)cc21 (stereo unspecified) | 21.9 µM (inactive) | 53.1 µM (inactive) | > 100 µM (inactive) | 14.1 µM (inactive) | 68.4 µM (inactive) | 28.4 µM (inactive) |  | > 100 µM (inactive) | > 100 µM (inactive)
3 | NC(=O)c1csc(C2OC(CO)C(O)C2O)n1 (stereo unspecified) | 61.1 µM (inactive) | 8.57 µM (inactive) | 92.7 µM (inactive) | 1170 µM (inactive) | 30.8 µM (inactive) | 67.8 µM (inactive) | 29 µM (inactive) | 43.8 µM (inactive) | 
4 | O=C1C(c2ccccc2)=[N+]([O-])c2cc([N+](=O)[O-])c(/C(Cl)=C/c3ccccc3)cc21 | 8.97 µM (inactive) | 14.2 µM (inactive) | 29.4 µM (inactive) | 24.1 µM (inactive) | 18.1 µM (inactive) |  | 15.3 µM (inactive) |  | 6.7 µM (inactive)
5 | COc1cccc(NC(=O)CC(=O)n2nc(C)c(/N=N/c3ccccc3)c2C)c1 | > 100 µM (inactive) | > 100 µM (inactive) | > 100 µM (inactive) | 12 µM (inactive) | > 100 µM (inactive) | 56.9 µM (inactive) | > 100 µM (inactive) |  | > 100 µM (inactive)
6 | COC(=O)C12CC(c3ccccc31)C1C(=O)OC(=O)C12 (stereo unspecified) | > 100 µM (inactive) | > 100 µM (inactive) | > 100 µM (inactive) |  | > 100 µM (inactive) | > 100 µM (inactive) | > 100 µM (inactive) | > 100 µM (inactive) | 
7 | CC(=O)c1ccc(NC(=O)C(=O)C(C#N)CC(C)(C)C=O)cc1 (stereo unspecified) |  |  | > 100 µM (inactive) |  |  | > 100 µM (inactive) | > 100 µM (inactive) | > 100 µM (inactive) | 
8 | O=C(CCc1nnc(S)[nH]1)Nc1cccc(C(F)(F)F)c1 | > 100 µM (inactive) | > 100 µM (inactive) | > 100 µM (inactive) | > 100 µM (inactive) | > 100 µM (inactive) | > 100 µM (inactive) |  | > 100 µM (inactive) | 
9 | CCOC(=O)C(N=C(c1ccccc1)c1ccccc1)N(C(=O)OC(C)(C)C)C(=O)OC(C)(C)C (stereo unspecified) | > 100 µM (inactive) |  | > 100 µM (inactive) |  |  |  | > 100 µM (inactive) | > 100 µM (inactive) | 
10 | Cc1cc(C)n(CCNCCn2nc(C)cc2C)n1 | > 100 µM (inactive) | > 100 µM (inactive) | > 100 µM (inactive) |  | > 100 µM (inactive) |  | > 100 µM (inactive) | > 100 µM (inactive) | 
11 | Cc1nc(Nc2ccccc2)sc1C(=O)NNC(N)=O | 84.5 µM (inactive) | > 100 µM (inactive) | > 100 µM (inactive) | > 100 µM (inactive) | > 100 µM (inactive) | > 100 µM (inactive) | > 100 µM (inactive) | > 100 µM (inactive) | 
12 | Cc1nc(=O)n2c(c1C(=O)Nc1ccc(Cl)cc1)NCCC2 | > 100 µM (inactive) |  | > 100 µM (inactive) |  |  | > 100 µM (inactive) | > 100 µM (inactive) |  | 
13 | COc1cc2c(cc1OC)C(Cl)C(c1ccc(Cl)cc1)=C2Cl (stereo unspecified) | 11.9 µM (inactive) | 16.3 µM (inactive) | 13 µM (inactive) | 15.9 µM (inactive) | 17.7 µM (inactive) | 3.45 µM (inactive) | 17.1 µM (inactive) | 18.1 µM (inactive) | 21.3 µM (inactive)
14 | Cc1cc(NS(=O)(=O)c2ccc(NC(=O)c3cccc4cc5ccccc5nc34)cc2)no1 | 18.3 µM (inactive) | 19.9 µM (inactive) | 29.9 µM (inactive) |  | 13.8 µM (inactive) | 17 µM (inactive) | 16.6 µM (inactive) | 27.7 µM (inactive) | 17.7 µM (inactive)
15 | O=C(CSSCC(=O)Nc1ccc(Br)cc1)Nc1ccc(Br)cc1 | 14 µM (inactive) | 18.1 µM (inactive) | 15.1 µM (inactive) |  | 16.5 µM (inactive) | 20.1 µM (inactive) | 18.5 µM (inactive) | 15.1 µM (inactive) | 
16 | O=C1CSC(Cc2nc3ccccc3[nH]2)=N1 | 13.1 µM (inactive) | 18.2 µM (inactive) | 40.5 µM (inactive) | 23.4 µM (inactive) | 15.4 µM (inactive) | 20.4 µM (inactive) | 7.03 µM (inactive) | 14.1 µM (inactive) | 
17 | O=C1/C(=C/c2ccccc2)CN(C(=O)Oc2ccc(Cl)cc2)C/C1=C\c1ccccc1 | 1.79 µM (inactive) | 1.11 µM (active) | 2.96 µM (inactive) | 13.1 µM (inactive) | 1.83 µM (inactive) | 2.29 µM (inactive) | 1.12 µM (active) | 2.71 µM (inactive) | 
18 | C#CCCCCC#CC1CCCC1C1=CC(=O)c2ccccc21 (stereo unspecified) | 1.48 µM (inactive) | 8.71 µM (inactive) |  | 12.5 µM (inactive) | 3.49 µM (inactive) | 8.36 µM (inactive) |  | 10.3 µM (inactive) | 
19 | C=C(C(=C)P(=S)(c1ccccc1)c1ccccc1)P(=S)(c1ccccc1)c1ccccc1 | 35.2 µM (inactive) |  | > 100 µM (inactive) | > 100 µM (inactive) | > 100 µM (inactive) | 73.6 µM (inactive) | > 100 µM (inactive) | > 100 µM (inactive) | 
20 | CCCCC#C[I+]c1ccccc1 |  | 19.5 µM (inactive) | 21.8 µM (inactive) | 14.5 µM (inactive) | 14.1 µM (inactive) | 15.3 µM (inactive) | 15.7 µM (inactive) | 18.3 µM (inactive) | 9.71 µM (inactive)
21 | O=c1[nH]cc(COCC(F)(F)C(F)(F)C(F)(F)C(F)F)c(=O)[nH]1 | > 100 µM (inactive) | > 100 µM (inactive) |  | > 100 µM (inactive) |  |  | > 100 µM (inactive) | > 100 µM (inactive) | 
22 | c1ccc2c(c1)N=C(c1ccc3ccccc3c1)CC(c1cccc3ccccc13)S2 (stereo unspecified) | 24.3 µM (inactive) | 11.6 µM (inactive) |  | > 100 µM (inactive) | 36.1 µM (inactive) | 35 µM (inactive) | 29.9 µM (inactive) | 43.5 µM (inactive) | 34.4 µM (inactive)
23 | COC(=O)c1ccc(/N=N/N(C)CO)cc1 | > 100 µM (inactive) | 98.6 µM (inactive) | 32.5 µM (inactive) |  | 63.1 µM (inactive) | 9.44 µM (inactive) | > 100 µM (inactive) | > 100 µM (inactive) | 
24 | Cn1c(=O)nc2n(-c3ccc(Br)cc3)c3ccccc3nc-2c1=O | 2 µM (inactive) | 4.05 µM (inactive) | 14 µM (inactive) | 5.6 µM (inactive) | 1.88 µM (inactive) | 12.1 µM (inactive) | 1.49 µM (inactive) | 2.54 µM (inactive) | 4.11 µM (inactive)
25 | CCC(COC(=O)CC[C@@H](NC(=O)C(C)NC(=O)C(C)OC1C(O)C(CO)OC(OCc2ccccc2)C1NC(C)=O)C(N)=O)NC1c2ccccc2Nc2cccc([N+](=O)[O-])c21 (stereo partly specified) | > 100 µM (inactive) | > 100 µM (inactive) | > 100 µM (inactive) | 69.2 µM (inactive) | > 100 µM (inactive) | > 100 µM (inactive) | > 100 µM (inactive) | > 100 µM (inactive) | 
26 | Cc1ccccc1NC(=O)CSc1nnc(-c2ccc(/N=C\c3ccc(Cl)cc3)cc2)o1 | > 100 µM (inactive) |  | > 100 µM (inactive) | > 100 µM (inactive) | > 100 µM (inactive) | > 100 µM (inactive) | > 100 µM (inactive) | > 100 µM (inactive) | 
27 | C[n+]1ccn2c3nc4ccccc4nc3c([O-])c(C#N)c21 | > 100 µM (inactive) | < 0.01 µM (active) | > 100 µM (inactive) | 84.7 µM (inactive) | > 100 µM (inactive) | > 100 µM (inactive) | < 0.01 µM (active) |  | 
